# Measurements published in patent US5525599A, “7-substituted-amino-3-substituted-3-cephem-4-carboxylic acids” (Eli Lilly and Company, priority 1993, dated 1996).
# Like-named read-outs stand apart in the source and are kept apart here.
# Columns and labels:
# [1] = test system: other Gram(-) bacteria; test: In vitro activity (MIC), agar dilution method; type: cell-based
# [2] = test system: 33 strains of methicillin-resistant staphylococci; test: Geometric mean MICs against 33 strains of methicillin-resistant staphylococci; type: cell-based; conditions: for MIC: 33 strains, read-out: Geometric mean MIC; for MICs relative to clinically achievable concentrations for cephalosporins / change of MICs in the presence of NaCl: in words, 4% NaCl
# Procedure: (§1) Test compounds were diluted to an appropriate range of concentrations in 0.1M phosphate buffer (pH 7), incorporated into Mueller-Hinton agar (difco) supplemented with 1% Bacto-Supplement C (Difco) at 50° C. and allowed to solidify in petri dishes. Fresh overnight cultures of test bacteria were diluted to approximately 1×10^4 cells/mL aand applied in […] to the surface of the agar plates. The inoculated plates were incubated overnight at 35° C. in ambient air. MIC endpoints were recorded as the lowest antibiotic concentrations that inhibited the development of visible bacterial growth on the plates.
# It is known that resistance to methicillin in staphylococci is often of the heterogeneous type and therefore not easily detected. […] (Goldstein, F. W.; Acar, J. J. Antimicrob. Chemother. […], 27, 549). […] J.; Drake T. A.; Rusnak, M. G.; Sande, M. A. J. Infect. Dis. 1984, 149, 894).
# [3] = MICs against 4 strains of methicillin-resistant staphylococci; type: cell-based, Staphylococcus aureus and Staphylococcus epidermidis; conditions: Staphylococcus aureus, read-out: minimal inhibitory concentrations (MICs)
# Procedure: (§2) Cephalosporins 9a-o were assayed against a broad array of Gram-positive and Gram-negative bacteria in Mueller-Hinton agar by the 2-fold serial dilution method, (Kirst, H. A.; J. Antibiot. 1982, 35, 1675).
# as §1
# [4] = test system: E. coli (EC14); test: In vitro activity (MIC), agar dilution method; type: cell-based; conditions: Escherichia coli
# Procedure: as §2, §1
# [5] = test system: K. pneumonia (KAE); test: In vitro activity (MIC), agar dilution method; type: cell-based; conditions: Klebsiella pneumoniae
# Procedure: as §2, §1
# [6] = test system: Strept. pyogenes (C203); test: In vitro activity (MIC), agar dilution method; type: cell-based; conditions: Streptococcus pyogenes; Strept. pyogenes (C203), agar dilution; read-out: MIC
# Procedure: as §2, §1
# [7] = test system: Staph. aureus (X400); test: In vitro activity (MIC), agar dilution method; type: cell-based; conditions: Staphylococcus aureus; Staph. aureus (X400), methicillin-resistant strain, agar dilution; read-out: MIC
# Procedure: as §2, §1
# [8] = test system: H. influenzae (C.L.); test: In vitro activity (MIC), agar dilution method; type: cell-based; conditions: Haemophilus influenzae; H. influenzae (C.L.), agar dilution; read-out: MIC
# Procedure: as §2, §1
# [9] = test system: Enter. faecalis (2041); test: In vitro activity (MIC), agar dilution method; type: cell-based; conditions: Enterococcus faecalis; Enter. faecalis (2041), agar dilution; read-out: MIC
# Procedure: as §2, §1
# [10] = test system: Staph. aureus (V41); test: In vitro activity (MIC), agar dilution method; type: cell-based; conditions: Staphylococcus aureus; Staph. aureus (V41), agar dilution; read-out: MIC
# Procedure: as §2, §1
# [11] = test system: K. pneumonia (X68); test: In vitro activity (MIC), agar dilution method; type: cell-based; conditions: Klebsiella pneumoniae
# Procedure: as §2, §1
# [12] = test system: Staph. aureus (X1.1); test: In vitro activity (MIC), agar dilution method; type: cell-based; conditions: Staphylococcus aureus; Staph. aureus (X1.1), agar dilution; read-out: MIC
# Procedure: as §2, §1
# [13] = test system: Staph. epiderm. (222); test: In vitro activity (MIC), agar dilution method; type: cell-based; conditions: Staphylococcus epidermidis; Staph. epiderm. (222), methicillin-resistant strain, agar dilution; read-out: MIC
# Procedure: as §2, §1
# [14] = test system: K. pneumonia (X26); test: In vitro activity (MIC), agar dilution method; type: cell-based; conditions: Klebsiella pneumoniae; K. pneumonia (X26), agar dilution; read-out: MIC
# Procedure: as §2, §1
# [15] = test system: E. coli (TEM); test: In vitro activity (MIC), agar dilution method; type: cell-based; conditions: Escherichia coli
# Procedure: as §2, §1
# [16] = test system: Enter. faecium (X66); test: In vitro activity (MIC), agar dilution method; type: cell-based; conditions: Enterococcus faecium; Enter. faecium (X66), agar dilution; read-out: MIC
# Procedure: as §2, §1
# [17] = test system: Staph. epiderm. (270); test: In vitro activity (MIC), agar dilution method; type: cell-based; conditions: Staphylococcus epidermidis, methicillin-resistant strain
# Procedure: as §2, §1
# [18] = test system: H. influenzae (76); test: In vitro activity (MIC), agar dilution method; type: cell-based; conditions: Haemophilus influenzae; H. influenzae (76), agar dilution; read-out: MIC
# Procedure: as §2, §1
# [19] = test system: E. coli (N10); test: In vitro activity (MIC), agar dilution method; type: cell-based; conditions: Escherichia coli
# Procedure: as §2, §1
# [20] = test system: Staph. aureus (S13E); test: In vitro activity (MIC), agar dilution method; type: cell-based; conditions: Staphylococcus aureus
# Procedure: as §2, §1
# [21] = E. coli (EC14), agar dilution, read-out: MIC
# [22] = K. pneumonia (KAE), agar dilution, read-out: MIC
# [23] = K. pneumonia (X68), agar dilution, read-out: MIC
# [24] = E. coli (N10), agar dilution, read-out: MIC
Compound,MIC [1],"MIC ([2]; MHA + 4% NaCl, 35° C.)",MIC ([2]; MHA),MICs relative to clinically achievable concentrations for cephalosporins [2],change of MICs in the presence of NaCl [2],MIC [3],MIC [4],MIC [5],MIC [6],MIC [7],MIC [8],MIC [9],MIC [10],MIC [11],MIC [12],MIC [13],MIC [14],MIC [16],MIC [17],MIC [18],further results
"CC(=O)OCC1=C(C(=O)O)N2C(=O)[C@@H](NC(=O)Cc3csc(-c4ccccc4O)n3)[C@H]2SC1 [9a, [6R-[6A,7B(R*)]]-3-[(Acetyloxy)methyl]-7-[[[2-(2-hydroxyphenyl)-4-thiazolyl]acetyl]amino]-8-oxo-5-thia-1-azabicyclo[4.2.0]oct-2-ene-2-carboxylic Acid]",> 64 µg/mL,2.4 µg/mL,1.7 µg/mL,remained in the range usually considered to be clinically achievable concentrations for cephalosporins,only slightly elevated in the presence of NaCl,≤ 16 µg/mL,128 µg/mL,128 µg/mL,1 µg/mL,2 µg/mL,8 µg/mL,2 µg/mL,0.25 µg/mL,128 µg/mL,0.03 µg/mL,4 µg/mL,2 µg/mL,16 µg/mL,0.125 µg/mL,0.5 µg/mL,MIC [15]: 128 µg/mL; MIC [19]: 128 µg/mL
"CC(=O)OCC1=C(C(=O)O)N2C(=O)[C@@H](NC(=O)Cc3csc(-c4c(O)cccc4O)n3)[C@H]2SC1 [9e, [6R-[6A,7B(R*)]]-3-[(Acetyloxy)methyl]-7-[[[2-(2,6-dihydroxyphenyl)-4-thiazolyl]acetyl]amino]-8-oxo-5-thia-1-azabicyclo[4.2.0]oct-2-ene-2-carboxylic Acid]",> 64 µg/mL,–,–,–,–,≤ 16 µg/mL,–,–,0.03 µg/mL,16 µg/mL,4 µg/mL,4 µg/mL,16 µg/mL,–,8 µg/mL,0.5 µg/mL,0.5 µg/mL,4 µg/mL,4 µg/mL,4 µg/mL,"MIC [4, 21]: 16 µg/mL; MIC [5, 22]: 128 µg/mL; MIC [20]: 4 µg/mL; MIC [11, 23]: 16 µg/mL; MIC [19, 24]: 64 µg/mL"
"O=C(Cc1csc(-c2c(O)cccc2O)n1)N[C@@H]1C(=O)N2C(C(=O)O)=C(Cl)CS[C@H]12 [9f, [6R-[6A, 7B (R*)]]-3-Chloro-7-[[[2-(2,6-dihydroxyphenyl)-4-thiazolyl]acetyl]amino]-8-oxo-5-thia-1-azabicyclo[4.2.0]oct-2-ene-2-carboxylic Acid]",> 64 µg/mL,–,–,–,–,–,–,–,0.06 µg/mL,16 µg/mL,1 µg/mL,8 µg/mL,16 µg/mL,–,16 µg/mL,2 µg/mL,0.5 µg/mL,8 µg/mL,8 µg/mL,1 µg/mL,"MIC [4, 21]: 32 µg/mL; MIC [5, 22]: 128 µg/mL; MIC [11, 23]: 32 µg/mL; MIC [19, 24]: 32 µg/mL"
"CC(=O)OCC1=C(C(=O)O)N2C(=O)[C@@H](NC(=O)Cc3csc(-c4ncccc4O)n3)[C@H]2SC1 [9i, [6R-[6A,7B(R*)]]-3-[(Acetyloxy)methyl]-7-[[[2-(3-hydroxy-2-pyridinyl)-4-thiazolyl]acetyl]amino]-8-oxo-5-thia-1-azabicyclo[4.2.0]oct-2-ene-2-carboxylicAcid]",> 64 µg/mL,8 µg/mL,4.8 µg/mL,remained in the range usually considered to be clinically achievable concentrations for cephalosporins,only slightly elevated in the presence of NaCl,≤ 16 µg/mL,128 µg/mL,128 µg/mL,0.015 µg/mL,4 µg/mL,4 µg/mL,8 µg/mL,0.5 µg/mL,128 µg/mL,0.125 µg/mL,0.125 µg/mL,1 µg/mL,8 µg/mL,0.5 µg/mL,2 µg/mL,MIC [20]: 2 µg/mL; MIC [15]: 128 µg/mL; MIC [19]: 128 µg/mL
